Laboratory results from ChEMBL document CHEMBL2074283, “Interaction of pristinamycin IA with P-glycoprotein in human intestinal epithelial cells” (Eur J Pharmacol, 1995).
Bridge positions count the residues as written; N and C are the ends. Square brackets hold non-standard residues; d marks the D form. Peptide text beside a SMILES is read from it. * marks the point of attachment. NMePhe(4-NMe2) = CN[C@@H](Cc1ccc(N(C)C)cc1)C(=O)O; Pip(4-oxo) = O=C1CCN[C@H](C(=O)O)C1; Picolinoyl(3-OH) = O=C(c1ncccc1O)*; Phg = N[C@H](C(=O)O)c1ccccc1; dAbu = CC[C@@H](N)C(=O)O

Tests used:
P-glycoprotein (ABCB1) = P-glycoprotein (ABCB1) (Homo sapiens, UniProt P08183); test: TP_TRANSPORTER: inhibition of Vinblastine transepithelial transport (basal to apical) (Vinblastine: 0.05 uM, Pristinamycin IA: 100 uM) in Caco-2 cells; format: functional, cell-based; details: Caco-2, probe Vinblastine 0.05 uM
P-glycoprotein (ABCB1), sequence (P08183 whole entry): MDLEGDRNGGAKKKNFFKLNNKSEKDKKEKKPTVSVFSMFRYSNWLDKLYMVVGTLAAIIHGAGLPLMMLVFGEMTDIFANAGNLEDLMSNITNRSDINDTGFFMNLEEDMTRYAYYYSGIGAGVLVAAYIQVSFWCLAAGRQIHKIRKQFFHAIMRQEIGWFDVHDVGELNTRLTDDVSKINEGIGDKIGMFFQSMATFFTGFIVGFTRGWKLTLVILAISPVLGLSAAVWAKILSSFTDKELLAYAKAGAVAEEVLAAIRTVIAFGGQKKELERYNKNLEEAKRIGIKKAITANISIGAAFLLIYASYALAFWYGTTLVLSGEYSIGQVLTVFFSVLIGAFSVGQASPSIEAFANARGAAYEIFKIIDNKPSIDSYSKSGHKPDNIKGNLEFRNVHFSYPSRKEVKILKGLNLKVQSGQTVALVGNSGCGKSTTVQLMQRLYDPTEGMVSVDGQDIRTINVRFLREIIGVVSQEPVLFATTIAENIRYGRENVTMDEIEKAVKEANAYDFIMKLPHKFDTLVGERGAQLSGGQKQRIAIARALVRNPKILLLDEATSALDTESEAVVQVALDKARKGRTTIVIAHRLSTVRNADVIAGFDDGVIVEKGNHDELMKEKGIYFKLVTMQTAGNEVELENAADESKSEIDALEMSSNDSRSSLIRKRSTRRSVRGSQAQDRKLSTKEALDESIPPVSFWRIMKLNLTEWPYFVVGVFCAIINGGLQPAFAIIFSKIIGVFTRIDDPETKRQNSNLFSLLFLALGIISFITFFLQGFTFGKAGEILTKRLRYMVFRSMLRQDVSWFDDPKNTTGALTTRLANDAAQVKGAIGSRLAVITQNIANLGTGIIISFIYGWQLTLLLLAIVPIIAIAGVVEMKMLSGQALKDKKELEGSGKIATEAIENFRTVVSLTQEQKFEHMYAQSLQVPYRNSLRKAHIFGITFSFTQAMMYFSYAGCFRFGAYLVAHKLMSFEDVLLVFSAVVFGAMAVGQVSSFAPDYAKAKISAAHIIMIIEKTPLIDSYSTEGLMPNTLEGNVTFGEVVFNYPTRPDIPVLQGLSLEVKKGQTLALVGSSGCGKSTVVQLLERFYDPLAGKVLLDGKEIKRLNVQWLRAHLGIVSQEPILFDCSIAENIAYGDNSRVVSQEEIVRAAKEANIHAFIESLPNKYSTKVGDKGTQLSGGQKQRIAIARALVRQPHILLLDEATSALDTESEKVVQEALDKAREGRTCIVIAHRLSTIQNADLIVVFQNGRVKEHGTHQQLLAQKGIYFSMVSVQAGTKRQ

[1] = biological target: ATP-dependent translocase ABCB1 (Homo sapiens, UniProt P08183); test: TP_TRANSPORTER: transepithelial transport (basal to apical) in Caco-2 cells; format: functional, cell-based
ATP-dependent translocase ABCB1, sequence (P08183 whole entry): as above

inhibition at 100 µM (P-glycoprotein (ABCB1)): 55%
Activity [1]: substrate [+]
SMILES: CC[C@H]1NC(=O)[C@@H](NC(=O)c2ncccc2O)[C@@H](C)OC(=O)[C@H](c2ccccc2)NC(=O)[C@@H]2CC(=O)CCN2C(=O)[C@H](Cc2ccc(N(C)C)cc2)N(C)C(=O)[C@@H]2CCCN2C1=O [PRISTINAMYCIN 1A] ({Picolinoyl(3-OH)}-T[dAbu]P[NMePhe(4-NMe2)][Pip(4-oxo)][Phg]; ester 1-C)
